Source: patent US12343350B2, “Istaroxime-containing intravenous formulation for the treatment of acute heart failure (AHF)” (Windtree Therapeutics, Inc., priority 2019, dated 2025)
Where two headings read alike, the source gives them in different places. Marks after values point to notes of the source that are not given here.

Assays:
SERCA2a = SERCA2a (Canis lupus familiaris (Dog) (Canis familiaris), UniProt O46674); test: SERCA2a ATPase activity in heart-derived SR microsomes from normal dog; type: biochemical; details: for % increase vs control (Vmax) / Vmax: normal dog SR microsomes; for Vmax: mean ± SD
Sequence of SERCA2a (O46674 whole entry): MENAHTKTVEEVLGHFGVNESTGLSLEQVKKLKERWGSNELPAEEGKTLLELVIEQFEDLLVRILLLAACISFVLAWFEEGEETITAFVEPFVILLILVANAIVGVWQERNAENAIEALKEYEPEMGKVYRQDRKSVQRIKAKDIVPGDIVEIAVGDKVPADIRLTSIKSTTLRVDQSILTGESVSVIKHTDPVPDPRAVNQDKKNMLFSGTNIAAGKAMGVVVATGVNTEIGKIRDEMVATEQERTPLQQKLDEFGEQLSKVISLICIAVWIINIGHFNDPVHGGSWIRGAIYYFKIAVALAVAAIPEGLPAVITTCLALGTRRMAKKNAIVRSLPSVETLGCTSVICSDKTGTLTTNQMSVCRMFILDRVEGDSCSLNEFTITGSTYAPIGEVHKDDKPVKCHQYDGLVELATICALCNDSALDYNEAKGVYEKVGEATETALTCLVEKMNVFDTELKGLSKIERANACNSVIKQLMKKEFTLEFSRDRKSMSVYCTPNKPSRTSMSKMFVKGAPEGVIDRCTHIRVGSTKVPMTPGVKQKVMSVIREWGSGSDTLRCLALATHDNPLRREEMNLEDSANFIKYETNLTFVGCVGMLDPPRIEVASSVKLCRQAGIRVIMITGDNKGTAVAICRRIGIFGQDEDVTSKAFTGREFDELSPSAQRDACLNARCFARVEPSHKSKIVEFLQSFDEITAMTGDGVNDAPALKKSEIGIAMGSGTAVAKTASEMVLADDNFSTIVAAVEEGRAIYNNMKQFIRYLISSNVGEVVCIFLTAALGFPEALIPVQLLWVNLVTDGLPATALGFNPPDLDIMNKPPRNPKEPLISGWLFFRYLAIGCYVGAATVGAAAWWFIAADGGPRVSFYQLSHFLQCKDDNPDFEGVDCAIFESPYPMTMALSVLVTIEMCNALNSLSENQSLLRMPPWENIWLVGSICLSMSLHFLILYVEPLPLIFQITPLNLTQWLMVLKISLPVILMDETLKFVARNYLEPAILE
Description: Male beagle dogs were used for obtaining cardiac tissues for SERCA2a-enriched sarcoplasmic reticulum preparations. Healthy dogs were utilized for obtaining the data in Table 3. Chronic heart failure was induced in dogs by multiple intracoronary microembolizations with polystyrene latex microspheres ([…], Polysciences, Warrington, PA, USA) as described previously (see Sabbah H N et al., Am J Physiol. 1991; 260:H1379-84). The experiments were conducted in the General Pharmacology Department of Sigma-Tau, Rome, Italy.
Left ventricle tissues were dissected, homogenized in 4 volumes of 10 mM NaHCO3 (pH 7), 1 mM PMSF, 10 μg/ml Aprotinin and Leupeptin and centrifuged at 12.000 g for 15 minutes, as described in Nediani C. et al. (J Biol Chem. 1996; 271:19066-73). Supernatants were filtered and centrifuged at 100.000 g for 30 min. Contractile proteins were extracted by suspending the pellets with 0.6 M KCl, 30 mM Histidine, pH 7 and further centrifugation at 100.000 g for 30 min. Final pellets were reconstituted with 0.3 M Sucrose, 30 mM Histidine, pH 7.
SERCA2a activity was measured in vitro as ^32P-ATP hydrolysis at different Ca2^+ concentrations (100 to 3000 nM) in the absence and presence of the tested compounds as described previously (see Micheletti R. et al., Am J Card 2007; 99:24A-32A). Increasing concentrations of each compound (from 0.05 to 300 nM) were pre-incubated with 2 μg of microsomes for 5 min at 4° C. in 80 μl of a solution containing 100 mM KCl, 5 mM MgCl2, 1 μM A23187, 20 mM Tris, pH 7.5. Then, 20 μl of 5 mM Tris-ATP containing 50 nCi of ^32P-ATP (3-10 Ci/mmol, Perkin Elmer) was added. The ATP hydrolysis was continued for 15 min at 37° C. and was stopped by acidification with 100 μl of 20% v/v ice-cold perchloric acid. ^32P was separated by centrifugation with activated charcoal (Norit A, SERVA) and the radioactivity was measured. SERCA2a-dependent activity was identified as the portion of total hydrolytic activity inhibited by 10 μM cyclopiazonic acid (see Seidler N W. et al., J Biol Chem. 1989; 264:17816-23).
Dose-response curves were fitted by using a sigmoidal curve fitting software and the maximal velocity (Vmax) activity and the Kd Ca2^+ were calculated (Synergy Software KaleidaGraph 3.6).
The compounds disclosed herein were tested on SERCA2a ATPase activity prepared from normal and failing dogs in a range of concentrations from […]. The effect has been expressed as % increase of the Vmax activity of a control sample run in the absence of compound. Data are mean & SD, where n indicates the number of experiments.

[1] = Plasma levels of istaroxime and its metabolites in patients (HPLC-MS/MS); type: in vivo, human; details: for plasma concentration course during the infusion period: 24 h infusion of 0.5 or 1 μg/kg/min istaroxime, Caucasian and Chinese patients
Description: The quantitative determination of PST 2744 and its metabolite PST 2915 in human plasma was determined by the HPLC-MS/MS method that included a mobile phase of 70:30 acetonitrile/water, 1 mL/L 1M formic acid, and 1 mL/L 5M ammonium acetate. The flow rate was 1 mL/min, and the chromatographic separation was by reversed phase HPLC (Column: SYNERGI 4μ POLAR-RP80A 150×4.6 mm equipped with a Security-guard Phenomenex Polar-RP 4×3 mm). Detection was performed by MS/MS, and the acquisition mode was Multiple Reaction Monitoring (MRM).
The quantitative determination of istaroxime metabolies PST 2922 and PST 3093 in human plasma was also measured by the HPLC-MS/MS method. In this case, the mobile phase was 50:50 H2 O/CH3 CN (v/v) and 500 μL/L 98-100% HCOOH. The flow rate was 1 mL/min and chromatographic separation was done by reversed-phase HPLC (Column: Phenomenex Phenyl hexyl, 150×4.6 mm, equipped with a Phenomenex phenyl propyl guard-cartridge) under isocratic conditions. Detection was performed by MS/MS (376.0→282.0 amu for PST2922, 378.0→284.0 amu for PST 3093 and 362.0→268.0 amu for PST 3418, IS).

[2] = Acute toxicity (LD50) in mouse; type: in vivo; details: Albino Swiss CD-1, in vivo, single administration
Description: Acute toxicity has been determined in the mouse (Albino Swiss CD-1, body weight 30 g). Mice were orally treated, or intravenously injected, with single administration of increasing doses of the test substance to identify the dose causing 50% mortality. Mortality occurred within 30 min after the administration and survival after 24 h. The acute toxicity (LD50) was then assessed.
The acute toxicity of the tested compound PST 3093 was determined in the mouse (Albino Swiss CD-1, body weight 30 g). Compound PST 3093 was orally administered or intravenously injected at increasing doses to identify the dose causing 50% mortality. Mortality occurred within 30 min after the administration and survival after 24 h.

dog renal Na,K-ATPase = dog renal Na,K-ATPase (Canis lupus familiaris (Dog) (Canis familiaris), UniProt P50997); test: Inhibition of dog renal Na,K-ATPase activity (32P-ATP); type: biochemical
Description: Kidneys were sliced and the outer medulla was dissected, pooled and suspended (1 g/10 ml) in a sucrose-histidine solution, containing 250 mM sucrose, 30 mM histidine and 5 mM EDTA, pH 7.2 and homogenized. The homogenate was centrifuged at 6.000 g for 15 min, the supernatant was decanted and centrifuged at 48.000 g for 30 min. The pellet was suspended in the sucrose-histidine buffer and incubated for 20 min with a sodium-dodecyl-sulphate (SDS) solution dissolved in a gradient buffer, containing 25 mM imidazole and 1 mM EDTA, pH 7.5. […] The pellet was suspended in the gradient buffer.
Increasing concentrations of the standard ouabain, or tested compound, were incubated with 0.3 μg of purified dog kidney enzyme for 10 min at 37° C. in 120 μl final volume of a medium containing 140 mM NaCl, 3 mM MgCl2, 50 mM Hepes-Tris, 3 mM ATP at a pH 7.5. Then, 10 μl of incubation solution containing 10 mM KCl and 20 nCi of ^32P-ATP (3-10 Ci/mmol, Perkin Elmer) was added, and the reaction was continued for 15 min at 37° C. The reaction was then stopped by acidification with 20% v/v ice-cold perchloric acid. ^32P was separated by centrifugation with activated Charcoal (Norit A, Serva) and the radioactivity was measured. The inhibitory activity was expressed as percent of the control samples carried out in the absence of ouabain or tested compound.

| SMILES | % increase vs control (Vmax) (SERCA2a; 0.1 nM compound) | % increase vs control (Vmax) (SERCA2a; 10 nM compound) | plasma concentration course during the infusion period [1] | average plasma level ([1]; at 48 hours, 1 μg/kg/min istaroxime infusion) | average plasma level ([1]; at 48 hours, Caucasian patients, 0.5 μg/kg/min istaroxime infusion) | average plasma level ([1]; at 48 hours, Chinese patients, 0.5 μg/kg/min istaroxime infusion) | average plasma concentration ([1]; at 70 hours, or 46 hours post-infusion) | average plasma concentration ([1]; by the end of the 24 h istaroxime infusion period (0.5 or 1 μg/kg/min)) | LD50 at 24 h ([2]; iv) [mg/kg] | LD50 at 24 h ([2]; os (oral)) [mg/kg] | IC50 (dog renal Na,K-ATPase) [nM] | Vmax (SERCA2a; 0.1 nM compound) [μmol/min/mg prot] | Vmax (SERCA2a; 10 nM compound) [μmol/min/mg prot] | SERCA2a activity stimulation (SERCA2a; normal dog SR vesicles, 0.1 nM and 10 nM) | plasma levels ([1]; at 48 hours) | plasmatic level ([1]; following time points, whole duration of the infusion) | concentration at 3 h ([1]; human, plasma, intravenous, at 3 hour time point of infusion, read-out: plasmatic level) [ng/mL] | IC50 (dog renal Na,K-ATPase; purified dog kidney enzyme, 37° C., read-out: IC50, inhibition of dog renal Na,K-ATPase) [nM] |
| --- | --- | --- | --- | --- | --- | --- | --- | --- | --- | --- | --- | --- | --- | --- | --- | --- | --- | --- |
| C[C@]12CCC(=NOCC(=O)O)CC1[C@H](O)CC1C2CC[C@]2(C)C(=O)CCC12 (stereo partly drawn) [PST 3093, (E,Z)-[(6-beta-hydroxy-17-oxoandrostan-3-ylidene)amino]oxyacetic acid] | 25** % | 19** % | continue to accumulate | about 21.2 ng/ml | about 25.02 ng/ml | about 12.5 ng/ml | exceeding 10 ng/mL | exceeding 60 ng/mL | > 250 | > 200 | > 100000 |  |  |  |  |  |  |  |
| C[C@]12CCC(=NOCCN)C[C@@H]1C(=O)C[C@@H]1[C@@H]2CC[C@]2(C)C(=O)CC[C@@H]12 [Istaroxime, (3Z,5a)-3-[(2-aminoethoxy)imino]androstane-6,17-dione] | 14* % | 20** % | remain relatively constant |  |  |  |  |  | 29 to 32 | 200 |  | 1.423 ± 0.123 | 1.505 ± 0.111 | significantly stimulated | not detectable | about 8 ng/ml | ~10 | 140 |
